{"source": "patent US12253532B2", "about": "“Mass spectrometric quantitation assay for metabolites of leflunomide” (Quest Diagnostics Investments LLC, priority 2010, dated 2025)", "origin": "cited, not measured here", "note": "Read-outs that look alike come from different tables or passages of the source.", "data": [{"smiles": "CC(O)=C(C#N)C(=O)Nc1ccc(C(F)(F)F)cc1", "note": "[teriflunomide, 2-cyano-3-hydroxy-N-(4-trifluoromethylphenyl)-2-butenamide]", "values": [{"measurement": "Mean steady state plasma concentration of teriflunomide", "setting": "patients on daily dosage of 5 mg leflunomide", "value": "about 8800 ng/mL"}, {"measurement": "Mean steady state plasma concentration of teriflunomide", "setting": "patients on daily dosage of 10 mg leflunomide", "value": "~18,000 ng/mL"}, {"measurement": "Mean steady state plasma concentration of teriflunomide", "setting": "patients on daily dosage of 25 mg leflunomide", "value": "~63,000 ng/mL"}]}]}
